Data set [1] concerns CYP1A2, CYP2C9, CYP2C19, CYP2D6, and CYP3A4. In words: CYP inhibition against major 5 human liver CYPs (panel, summary in words). It counts as in vitro ADME. The conditions noted are these: drug-drug interaction remark.
For the next data set, the target named is T1, CYP17A1 (Homo sapiens, UniProt P05093).
T1 sequence (P05093 1-508): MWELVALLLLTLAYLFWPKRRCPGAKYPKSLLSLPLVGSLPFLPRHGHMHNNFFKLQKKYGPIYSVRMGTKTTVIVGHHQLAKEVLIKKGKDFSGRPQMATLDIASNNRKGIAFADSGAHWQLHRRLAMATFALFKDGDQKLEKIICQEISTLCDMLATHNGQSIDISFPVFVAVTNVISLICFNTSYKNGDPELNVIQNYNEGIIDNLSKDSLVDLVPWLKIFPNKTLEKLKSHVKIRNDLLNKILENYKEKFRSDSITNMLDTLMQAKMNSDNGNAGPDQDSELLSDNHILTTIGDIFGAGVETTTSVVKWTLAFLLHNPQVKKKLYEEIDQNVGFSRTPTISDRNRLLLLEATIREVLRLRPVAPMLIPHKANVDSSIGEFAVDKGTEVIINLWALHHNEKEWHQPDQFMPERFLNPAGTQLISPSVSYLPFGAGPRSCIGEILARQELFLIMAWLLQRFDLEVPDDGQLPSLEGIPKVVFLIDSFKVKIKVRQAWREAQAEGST
In words: CYP17A1 inhibition (CYP17A1 bactosomes, progesterone substrate, LC-MS/MS). The format is biochemical. The arrangement: purchased Cypex, Dundee, UK; host or cells: bacterial membranes (bactosomes).

The next data set in a line: Solubility in DMSO. The format is physicochemical.
Another data set deals with T2, CYP2D6 (Homo sapiens, UniProt P10635).
T2 construct: purchased Cypex, Dundee CYP/XG001, Batch XG001001; host or cells: E. coli
T2 sequence (P10635 whole entry): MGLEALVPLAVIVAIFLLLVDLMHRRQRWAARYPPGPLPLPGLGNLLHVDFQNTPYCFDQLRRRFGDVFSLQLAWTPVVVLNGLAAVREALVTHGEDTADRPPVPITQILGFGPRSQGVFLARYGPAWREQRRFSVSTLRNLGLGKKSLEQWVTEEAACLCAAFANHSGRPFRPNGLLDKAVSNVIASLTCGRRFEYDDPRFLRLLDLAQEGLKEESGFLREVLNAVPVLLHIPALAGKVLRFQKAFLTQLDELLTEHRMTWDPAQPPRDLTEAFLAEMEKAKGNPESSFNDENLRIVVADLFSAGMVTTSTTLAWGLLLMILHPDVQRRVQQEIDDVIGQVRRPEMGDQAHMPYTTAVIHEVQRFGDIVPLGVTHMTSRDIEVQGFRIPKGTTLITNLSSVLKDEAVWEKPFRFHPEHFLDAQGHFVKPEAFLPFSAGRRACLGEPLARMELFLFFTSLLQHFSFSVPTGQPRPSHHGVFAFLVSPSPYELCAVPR
In words: CYP inhibition, 5 CYP bactosome mix: CYP2D6 (bufuralol). The conditions noted are these: bufuralol 10 μM. It counts as in vitro ADME.

Another data set concerns the target T3, CYP3A4 (Homo sapiens, UniProt P08684).
T3 construct: purchased Cypex, Dundee CYP/XG001, Batch XG001001; host or cells: E. coli
In words: CYP inhibition, 5 CYP bactosome mix: CYP3A4 (midazolam). It counts as in vitro ADME. The conditions noted are these: midazolam 2.5 μM.

The target of the next data set is T4, CYP2C19 (Homo sapiens, UniProt P33261).
T4 construct: purchased Cypex, Dundee CYP/XG001, Batch XG001001; host or cells: E. coli
T4 sequence (P33261 whole entry): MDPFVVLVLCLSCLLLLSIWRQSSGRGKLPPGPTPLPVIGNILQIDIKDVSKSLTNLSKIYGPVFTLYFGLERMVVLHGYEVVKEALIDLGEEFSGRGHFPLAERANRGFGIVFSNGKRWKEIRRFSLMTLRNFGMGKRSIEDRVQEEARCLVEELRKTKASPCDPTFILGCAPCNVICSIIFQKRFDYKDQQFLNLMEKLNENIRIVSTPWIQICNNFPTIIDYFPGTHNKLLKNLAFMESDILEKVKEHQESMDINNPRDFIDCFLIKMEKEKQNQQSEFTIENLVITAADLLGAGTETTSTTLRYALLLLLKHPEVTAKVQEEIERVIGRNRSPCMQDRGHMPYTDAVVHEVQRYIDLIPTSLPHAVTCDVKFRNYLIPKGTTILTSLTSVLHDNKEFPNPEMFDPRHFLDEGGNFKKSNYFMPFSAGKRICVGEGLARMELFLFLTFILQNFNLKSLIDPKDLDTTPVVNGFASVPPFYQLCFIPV
The data set is described as follows: CYP inhibition, 5 CYP bactosome mix: CYP2C19 ((S)-mephenytoin). It counts as in vitro ADME. The conditions noted are these: (S)-mephenytoin 40 μM.

For a further data set, the target named is T5, CYP1A2 (Homo sapiens, UniProt P05177).
T5 construct: purchased Cypex, Dundee CYP/XG001, Batch XG001001; host or cells: E. coli
T5 sequence (P05177 1-516): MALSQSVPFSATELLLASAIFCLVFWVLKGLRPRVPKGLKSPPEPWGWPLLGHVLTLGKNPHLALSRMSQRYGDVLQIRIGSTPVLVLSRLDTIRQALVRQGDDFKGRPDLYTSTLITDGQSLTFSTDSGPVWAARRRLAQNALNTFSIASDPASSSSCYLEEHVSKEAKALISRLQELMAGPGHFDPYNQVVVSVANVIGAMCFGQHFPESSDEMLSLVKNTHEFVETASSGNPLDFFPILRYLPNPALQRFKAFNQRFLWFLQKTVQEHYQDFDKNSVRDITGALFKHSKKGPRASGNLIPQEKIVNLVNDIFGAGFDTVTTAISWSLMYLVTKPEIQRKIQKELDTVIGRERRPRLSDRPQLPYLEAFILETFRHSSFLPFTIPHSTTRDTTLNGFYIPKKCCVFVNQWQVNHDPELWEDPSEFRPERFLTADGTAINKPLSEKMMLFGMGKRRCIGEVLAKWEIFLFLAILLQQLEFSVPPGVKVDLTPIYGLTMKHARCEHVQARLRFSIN
The data set is described as follows: CYP inhibition, 5 CYP bactosome mix: CYP1A2 (tacrine). As to conditions: tacrine 0.5 μM. It counts as in vitro ADME.

In another data set the target is T6, CYP2C9 (Homo sapiens, UniProt P11712).
T6 construct: purchased Cypex, Dundee CYP/XG001, Batch XG001001; host or cells: E. coli
T6 sequence (P11712 whole entry): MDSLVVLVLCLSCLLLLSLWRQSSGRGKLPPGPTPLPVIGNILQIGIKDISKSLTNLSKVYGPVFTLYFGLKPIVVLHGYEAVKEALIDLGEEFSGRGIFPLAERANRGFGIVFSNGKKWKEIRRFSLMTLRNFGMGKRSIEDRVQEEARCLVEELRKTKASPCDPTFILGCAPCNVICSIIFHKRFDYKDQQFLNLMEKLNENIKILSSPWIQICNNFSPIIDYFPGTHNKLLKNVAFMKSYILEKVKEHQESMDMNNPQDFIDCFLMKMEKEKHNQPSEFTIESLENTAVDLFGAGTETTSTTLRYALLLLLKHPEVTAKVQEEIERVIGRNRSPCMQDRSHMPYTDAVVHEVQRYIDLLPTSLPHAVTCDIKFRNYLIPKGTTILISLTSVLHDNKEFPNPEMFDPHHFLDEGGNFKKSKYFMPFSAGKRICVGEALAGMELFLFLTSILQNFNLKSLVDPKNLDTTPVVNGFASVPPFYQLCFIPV
The data set is described as follows: CYP inhibition, 5 CYP bactosome mix: CYP2C9 (diclofenac). The format is in vitro ADME. The conditions noted are these: diclofenac 2 μM.

The next data set has as its target T7, CYP19A1 (Homo sapiens, UniProt P11511).
T7 sequence (P11511 1-503): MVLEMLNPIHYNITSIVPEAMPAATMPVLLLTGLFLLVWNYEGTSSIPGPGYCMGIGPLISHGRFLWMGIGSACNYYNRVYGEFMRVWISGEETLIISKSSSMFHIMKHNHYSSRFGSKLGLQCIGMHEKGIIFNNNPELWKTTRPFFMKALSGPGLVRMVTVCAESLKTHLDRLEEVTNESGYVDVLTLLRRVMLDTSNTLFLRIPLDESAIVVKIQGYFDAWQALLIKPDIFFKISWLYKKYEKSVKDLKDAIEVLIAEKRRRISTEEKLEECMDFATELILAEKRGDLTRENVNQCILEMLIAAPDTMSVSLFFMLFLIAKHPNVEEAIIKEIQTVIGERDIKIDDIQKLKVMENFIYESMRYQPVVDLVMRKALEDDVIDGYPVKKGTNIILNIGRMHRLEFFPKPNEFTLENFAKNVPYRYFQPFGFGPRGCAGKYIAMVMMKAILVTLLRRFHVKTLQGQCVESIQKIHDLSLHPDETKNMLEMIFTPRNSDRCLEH
The data set is described as follows: CYP19A1 inhibition (CYP19/MFC High Throughput Inhibitor Screen Kit, fluorescence). It counts as biochemical. How it is done:
Test compounds and control inhibitors were prepared as stocks in either Acetonitrile or DMSO from the solid compound. Compounds were serially diluted in ½ log steps in the same solvent.
CYP19A1 inhibition experiments were performed using the CYP19/MFC High Throughput Inhibitor Screen Kit (Corning).
CYP19A1 reactions were performed in black 96 well-plates (Greiner) according to the manufacturer's instructions. […] Final organic solvent concentrations were either 4% (v/v) acetonitrile or 0.5% (v/v) Dimethyl sulfoxide. The plates were covered with self-adhesive film lids and incubated for 10 minutes at 37° C. Reactions were terminated by the addition of 75 μl Stop Solution (100 mM Tris base in acetonitrile: MilliQ water (80:20).
Fluorescence of 7-Hydroxy-4-trifluoromethylcoumarin (HFC) was measured on a SpectraMax® i3x (Molecular Devices) using 409 nm and 530 nm as excitation and emission wavelengths, respectively.
The CYP activities for each test compound/positive control inhibitor at each concentration were converted to % of control activity (CA). The LC-MS/MS peak responses (CYP metabolite peak area/internal standard peak area) for each test compound or positive control inhibitor were used and the response for each sample was expressed as a percentage of an uninhibited control (DMSO incubation). The data were then expressed as (log(CA/100-CA) and used to generate a pseudo-Hill plot, the slope and y axis intercept are used to calculate the IC50-value according to the following equation.

3 compounds from patent US20200247794A1, “PHARMACOPHORES, COMPOUNDS AND METHODS HAVING APPLICATION IN THE TREATMENT OF CANCER THROUGH INHIBITION OF CYP17A1 AND CYP19A1” (MANGOSUTHU UNIVERSITY OF TECHNOLOGY, priority 2015, published 2020) can be followed below.

Where two headings read alike, the source gives them in different places. Some results are limits rather than exact numbers.

T3 sequence (P08684 whole entry): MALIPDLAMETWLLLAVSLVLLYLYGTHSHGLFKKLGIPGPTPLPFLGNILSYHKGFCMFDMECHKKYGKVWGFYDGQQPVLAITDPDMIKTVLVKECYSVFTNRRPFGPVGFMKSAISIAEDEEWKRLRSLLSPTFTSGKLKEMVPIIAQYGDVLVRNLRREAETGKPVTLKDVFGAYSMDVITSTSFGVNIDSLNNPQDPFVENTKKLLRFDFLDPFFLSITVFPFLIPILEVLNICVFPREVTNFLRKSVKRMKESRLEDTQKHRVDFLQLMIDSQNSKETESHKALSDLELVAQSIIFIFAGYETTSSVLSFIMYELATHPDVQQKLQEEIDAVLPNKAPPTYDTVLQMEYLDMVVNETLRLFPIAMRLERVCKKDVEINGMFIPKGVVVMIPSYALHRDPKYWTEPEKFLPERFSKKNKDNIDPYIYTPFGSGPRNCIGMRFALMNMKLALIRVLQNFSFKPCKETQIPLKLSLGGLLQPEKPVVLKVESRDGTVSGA
Procedure for CYP17A1: CYP17A1 inhibition was measured using 20 pmol/ml CYP17A1 bactosomes (Cypex, Dundee, UK) and 0.1 μM progesterone as a substrate and 1 mM NADPH in 50 mM potassium phosphate buffer pH 7.4 containing 5 mM magnesium chloride. Inhibitors were dissolved in DMSO and serially diluted in seven ½ log steps, final concentrations ranging from 50 μM to 50 nM. Reaction volume was 100 μl and final DMSO concentration was 1% (v/v). Reactions were started by the addition of NADPH and incubated at 37° C. for 20 minutes with shaking at 1800 rpm on a Bioshake IQ (Q-Instruments, Jena, Germany). Reactions were terminated by the addition of 200 μl methanol containing 1 μM tolbutamide as an internal standard.

As to `Cc1nc(SC(C(=O)c2c[nH]c3ccccc23)c2ccccc2)sc1CC(N)=O` (racemic) [Compound 3, 2-(2-{[2-(1H-indol-3-yl)-2-oxo-1-phenylethyl]sulfanyl}-4-methyl-1,3-thiazol-5-yl)acetamide], the “inhibition of metabolic CYP450 isoforms (in words)” value (from here on “inhibition”) in data set [1] is recorded as “inhibit various CYP450 isoforms”. The IC50 at CYP17A1 (20 pmol/ml bactosomes, 0.1 μM progesterone, 50 μM to 50 nM) is > 34.1 µM; on CYP2D6, 15 µM; against CYP3A4, 2.7 µM; against CYP2C19 it was 8.3 µM; on CYP1A2 it was 12.6 µM. Also, the “inhibitory potency of CYP17A1 (in words)” value against CYP17A1 (summary of Table 2) is reported as “micromolar levels”. Besides, in “Solubility in DMSO”, the “Soluble in DMSO” value is reported as “Yes”. Also, in “Toxicity studies”, the safety profile entry is on record as “reasonably good safety profiles”.

`Cc1cccc(C(=O)OCCOc2ccc(S(N)(=O)=O)cc2)c1N` [Compound 4, 2-(4-sulfamoylphenoxy)ethyl 2-amino-3-methylbenzoate]: the “inhibition” value in data set [1] is recorded as “inhibit various CYP450 isoforms”. Further, the IC50 against CYP2C9 was found to be 16 µM; at CYP3A4 it was 3.3 µM; against CYP19A1, 43.5 µM; against CYP2C19 it was 1.5 µM.

Take `O=C1COc2cc(NCc3cccc(C(=O)Nc4ccccc4O)c3)ccc2N1` [Compound 11, N-(2-hydroxyphenyl)-3-{[(3-oxo-3,4-dihydro-2H-1,4-benzoxazin-7-yl)amino]methyl}benzamide]: in data set [1], the “inhibition” value is “inhibit various CYP450 isoforms”. The IC50 on CYP2D6 was 2.7 µM; against CYP2C9 it was 4 µM; against CYP3A4 it was 8.3 µM; on CYP19A1 (7.5 pmol/ml CYP19A1, 25 μM MFC, top concentration 50 μM (acetonitrile) or 25 μM (DMSO), read-out: CYP19A1 IC50), 8.6 µM; against CYP2C19 it was 7.6 µM; against CYP1A2, 26.9 µM.
